Tested on: participants with Raynaud's Phenomenon secondary mostly to systemic sclerosis (SSc-RP)
Assay: Frequency of weekly symptomatic RP attacks (patient diary), Phase 2a study Part A
Assay type: in vivo, human
Experimental: A randomized, placebo-controlled phase 2a study was performed and is in progress to assess the safety and efficacy of cilnidipine (10 mg and 20 mg) alone and in combination with 5 mg tadalafil, in participants with diagnosis of scleroderma and/or secondary Raynaud's disease.
The relevant metrics measured by this tool daily are: • Study medication • SSc-RP symptoms (Reporting an attack including duration of attack) • Severity of the attack considering all symptoms of the attack e.g., tingling, numbness, pain, color changes (VAS 0-10 cm scale) • Participant's location at the time of the attack (inside home/outside home) • Selecting symptoms experienced during the attack (tingling, numbness, pain, color changes, other) • Pain rating during the attack (11-point Likert scale) • The RCS based on how much difficulty participants had with Raynaud's today, how many attacks the participant had, and how long they lasted. Participants will also be asked to consider how much pain, numbness, or other symptoms the Raynaud's caused in fingers (including painful sores), and how much the Raynaud's alone affected the use of hands today (VAS 0-10 cm scale).
Percent change from baseline evaluation for frequency of weekly RP attacks were or will be used as the primary efficacy variable. The sponsor-developed participant-informed diary will be used to record data. Frequency of weekly RP attacks is defined as the total number of RP attacks divided by the number of days with available diary data within the last 7 days of each dosing period then multiplied by 7. Total number of RP attacks during the last 7 days of screening period divided by the number of days with available data then multiplied by 7 will be used as baseline for the analysis of all periods. The variable will be calculated as follows:
Percentage change={(weekly RP attacks for the last 7 days of each dosing period−Baseline weekly RP attacks)/Baseline weekly RP attacks}*100%.
Absolute change=weekly RP attacks for the last 7 days of each dosing period−Baseline weekly RP attacks
Percent change from baseline evaluation for frequency of weekly RP attacks was and will be the primary efficacy endpoint. Frequency of weekly RP attacks is defined as the total number of RP attacks divided by the number of days with available diary data within the last 7 days of each dosing period then multiplied by 7. Total number of RP attacks during the last 7 days of screening period divided by the number of days with available data then multiplied by 7 will be used as baseline for the analysis of all periods.
The following data was actually obtained in accordance with the protocol and plan delineated in Examples 1 and 2. The accompanying data involved 11 patients out of the planned 76 patient study. The study was done in patients with scleroderma (systemic sclerosis) who had relatively frequent Raynaud symptoms as they needed to average at least one attack per day during a screening period of up to two weeks. In this first phase of this double-blind placebo-controlled, prospective randomized study, patients were treated in parallel and after meeting study criteria were randomized to receive either placebo, cilnidipine 10 mg daily, cilnidipine 20 mg daily, tadalafil 5 mg daily, cilnidipine 10 mg plus 5 mg of tadalafil, or cilnidipine 20 mg plus 5 mg of tadalafil.

[1] = Pooled Cilnidipine 20 mg and Cilnidipine 20 mg + Tadalafil 5 mg, n 4, Excluding Outliers, ITT Part A
[2] = Pooled Cilnidipine (N = 3), ITT Part A
[3] = Pooled Cilnidipine, n 3, Excluding Outliers, ITT Part A
[4] = Pooled Cilnidipine, n 3, by Baseline RCS, 1st block (RCS <5.0), ITT Part A
[5] = all cilnidipine and cilnidipine plus tadalafil treated patients (n=7)
[6] = excluding outliers, by baseline RCS, first subgroup, cilnidipine 10 mg, tadalafil 5 mg daily
[7] = excluding outliers, by baseline RCS, first subgroup, cilnidipine 20 mg, tadalafil 5 mg daily
[8] = excluding outliers, by baseline RCS, first subgroup, pooled cilnidipine 10 mg and 20 mg, tadalafil 5 mg daily

COCCOC(=O)C1=C(C)NC(C)=C(C(=O)OC/C=C/c2ccccc2)C1c1cccc([N+](=O)[O-])c1 (centres unmarked) [Cilnidipine, cilnidipine]
Weekly Symptomatic RP Attacks Change from Baseline, Median [1]: −3.50
Weekly Symptomatic RP Attacks Percent Change from Baseline, Mean (SD) [1]: −25.00 (14.410) %
Weekly Symptomatic RP Attacks Percent Change from Baseline, Median [1]: −28.17%
Weekly Symptomatic RP Attacks, Mean (SD) [1]: 9.75 (3.403)
Weekly Symptomatic RP Attacks, Median [1]: 10.50
Weekly Symptomatic RP Attacks Change from Baseline, Mean [2]: −5.33
Weekly Symptomatic RP Attacks Change from Baseline, Median [2]: −7.00
Weekly Symptomatic RP Attacks Percent Change from Baseline, Mean [2]: −33.60%
Weekly Symptomatic RP Attacks Percent Change from Baseline, Median [2]: −33.33%
Weekly Symptomatic RP Attacks, Mean [2]: 10.00
Weekly Symptomatic RP Attacks, Median [2]: 11.00
Weekly Symptomatic RP Attacks Change from Baseline, Mean (SD) [3]: −5.33 (2.887)
Weekly Symptomatic RP Attacks Change from Baseline, Median [3]: −7.00
Weekly Symptomatic RP Attacks Percent Change from Baseline, Mean (SD) [3]: −33.60 (5.164) %
Weekly Symptomatic RP Attacks Percent Change from Baseline, Median [3]: −33.33%
Weekly Symptomatic RP Attacks, Mean (SD) [3]: 10.00 (4.583)
Weekly Symptomatic RP Attacks, Median [3]: 11.00
Weekly Symptomatic RP Attacks Change from Baseline, Mean (SD) [4]: −5.33 (2.887)
Weekly Symptomatic RP Attacks Change from Baseline, Median [4]: −7.00
Weekly Symptomatic RP Attacks Percent Change from Baseline, Mean (SD) [4]: −33.60 (5.164) %
Weekly Symptomatic RP Attacks Percent Change from Baseline, Median [4]: −33.33%
Weekly Symptomatic RP Attacks, Mean (SD) [4]: 10.00 (4.583)
Weekly Symptomatic RP Attacks, Median [4]: 11.00
patients in whom the average frequency of Raynaud's attacks decreased more than 25% [5]: 6 of 7
weekly frequency of Raynaud attacks, direction of change [5]: decrease
reduction in the weekly frequency of attacks, range (baseline RCS <5.0, all cilnidipine and cilnidipine plus tadalafil treated patients (n=5)): 28%-44%
Weekly Symptomatic RP Attacks Change from Baseline, Max [6]: −7.0, −7.0
Weekly Symptomatic RP Attacks Change from Baseline, Mean (SD) [6]: −7.00
Weekly Symptomatic RP Attacks Change from Baseline, Median [6]: −7.00
Weekly Symptomatic RP Attacks Change from Baseline, Min [6]: −7.0, −7.0
Weekly Symptomatic RP Attacks Change from Baseline, Q1 [6]: −7.00, −7.00
Weekly Symptomatic RP Attacks Change from Baseline, Q3 [6]: −7.00, −7.00
Weekly Symptomatic RP Attacks Percent Change from Baseline, Max [6]: −33.3, −33.3%
Weekly Symptomatic RP Attacks Percent Change from Baseline, Mean (SD) [6]: −33.33%
Weekly Symptomatic RP Attacks Percent Change from Baseline, Median [6]: −33.33%
Weekly Symptomatic RP Attacks Percent Change from Baseline, Min [6]: −33.3, −33.3%
Weekly Symptomatic RP Attacks Percent Change from Baseline, Q1 [6]: −33.33, −33.33%
Weekly Symptomatic RP Attacks Percent Change from Baseline, Q3 [6]: −33.33, −33.33%
Weekly Symptomatic RP Attacks, Max [6]: 14.0, 14.0
Weekly Symptomatic RP Attacks, Mean (SD) [6]: 14.00
Weekly Symptomatic RP Attacks, Median [6]: 14.00
Weekly Symptomatic RP Attacks, Min [6]: 14.0, 14.0
Weekly Symptomatic RP Attacks, Q1 [6]: 14.00, 14.00
Weekly Symptomatic RP Attacks, Q3 [6]: 14.00, 14.00
Weekly Symptomatic RP Attacks Change from Baseline, Max [7]: −2.0
Weekly Symptomatic RP Attacks Change from Baseline, Mean (SD) [7]: −4.50 (3.536)
Weekly Symptomatic RP Attacks Change from Baseline, Median [7]: −4.50
Weekly Symptomatic RP Attacks Change from Baseline, Min [7]: −7.0
Weekly Symptomatic RP Attacks Change from Baseline, Q1 [7]: −7.00
Weekly Symptomatic RP Attacks Change from Baseline, Q3 [7]: −2.00
Weekly Symptomatic RP Attacks Percent Change from Baseline, Max [7]: −28.6%
Weekly Symptomatic RP Attacks Percent Change from Baseline, Mean (SD) [7]: −33.73 (7.296) Percent
Weekly Symptomatic RP Attacks Percent Change from Baseline, Median [7]: −33.73%
Weekly Symptomatic RP Attacks Percent Change from Baseline, Min [7]: −38.9%
Weekly Symptomatic RP Attacks Percent Change from Baseline, Q1 [7]: −38.89%
Weekly Symptomatic RP Attacks Percent Change from Baseline, Q3 [7]: −28.57%
Weekly Symptomatic RP Attacks, Max [7]: 11.0
Weekly Symptomatic RP Attacks, Mean (SD) [7]: 8.00 (4.243)
Weekly Symptomatic RP Attacks, Median [7]: 8.00
Weekly Symptomatic RP Attacks, Min [7]: 5.0
Weekly Symptomatic RP Attacks, Q1 [7]: 5.00
Weekly Symptomatic RP Attacks, Q3 [7]: 11.00
Weekly Symptomatic RP Attacks Change from Baseline, Max [8]: −2.0
Weekly Symptomatic RP Attacks Change from Baseline, Mean (SD) [8]: −5.33 (2.887)
Weekly Symptomatic RP Attacks Change from Baseline, Median [8]: −7.00
Weekly Symptomatic RP Attacks Change from Baseline, Min [8]: −7.0
Weekly Symptomatic RP Attacks Change from Baseline, Q1 [8]: −7.00
Weekly Symptomatic RP Attacks Change from Baseline, Q3 [8]: −2.00
Weekly Symptomatic RP Attacks Percent Change from Baseline, Max [8]: −28.6%
Weekly Symptomatic RP Attacks Percent Change from Baseline, Mean (SD) [8]: −33.60 (5.164) Percent
Weekly Symptomatic RP Attacks Percent Change from Baseline, Median [8]: −33.33%
Weekly Symptomatic RP Attacks Percent Change from Baseline, Min [8]: −38.9%
Weekly Symptomatic RP Attacks Percent Change from Baseline, Q1 [8]: −38.89%
Weekly Symptomatic RP Attacks Percent Change from Baseline, Q3 [8]: −28.57%
Weekly Symptomatic RP Attacks, Max [8]: 14.0
Weekly Symptomatic RP Attacks, Mean (SD) [8]: 10.00 (4.583)
Weekly Symptomatic RP Attacks, Median [8]: 11.00
Weekly Symptomatic RP Attacks, Min [8]: 5.0
Weekly Symptomatic RP Attacks, Q1 [8]: 5.00
Weekly Symptomatic RP Attacks, Q3 [8]: 14.00
